Reference: the NIST ThermoML archive (doi:10.1021/acs.jced.5b01075)
Numbers after ± are expanded uncertainties.

Experiment: xn = mol fraction of the nth substance listed
Conditions: for viscosity: 100 kPa, Liquid, Concentric cylinders viscometry; for surface tension liquid-gas: 294.2 K, Pendant drop shape

C1CC[C@H]2CCCC[C@@H]2C1 [trans-decahydronaphthalene] + c1ccc2c(c1)CCCC2
viscosity (293.15 K, x2 = 0.1044): 2.07 ± 0.02 mPa·s | viscosity (293.15 K, x2 = 0.2075): 2.03 ± 0.02 mPa·s | viscosity (293.15 K, x2 = 0.3094): 2.02 ± 0.02 mPa·s | viscosity (293.15 K, x2 = 0.4109): 2 ± 0.02 mPa·s | viscosity (293.15 K, x2 = 0.5112): 2.02 ± 0.02 mPa·s | viscosity (293.15 K, x2 = 0.6106): 2.04 ± 0.02 mPa·s | viscosity (293.15 K, x2 = 0.7093): 2.07 ± 0.02 mPa·s | viscosity (293.15 K, x2 = 0.807): 2.11 ± 0.03 mPa·s | viscosity (293.15 K, x2 = 0.9039): 2.17 ± 0.03 mPa·s | surface tension liquid-gas (x2 = 0.1044): 30.5 ± 0.4 mN/m | surface tension liquid-gas (x2 = 0.2075): 31 ± 0.4 mN/m | surface tension liquid-gas (x2 = 0.3094): 31.4 ± 0.4 mN/m | surface tension liquid-gas (x2 = 0.4109): 32.1 ± 0.4 mN/m | surface tension liquid-gas (x2 = 0.5112): 32.3 ± 0.4 mN/m | surface tension liquid-gas (x2 = 0.6106): 32.9 ± 0.4 mN/m | surface tension liquid-gas (x2 = 0.7093): 33.6 ± 0.4 mN/m | surface tension liquid-gas (x2 = 0.807): 34.1 ± 0.6 mN/m | surface tension liquid-gas (x2 = 0.9039): 35 ± 0.4 mN/m | viscosity (303.15 K, x2 = 0.1044): 1.74 ± 0.02 mPa·s | viscosity (303.15 K, x2 = 0.2075): 1.71 ± 0.02 mPa·s | viscosity (303.15 K, x2 = 0.3094): 1.7 ± 0.02 mPa·s | viscosity (303.15 K, x2 = 0.4109): 1.68 ± 0.02 mPa·s | viscosity (303.15 K, x2 = 0.5112): 1.69 ± 0.02 mPa·s | viscosity (303.15 K, x2 = 0.6106): 1.71 ± 0.02 mPa·s | viscosity (303.15 K, x2 = 0.7093): 1.73 ± 0.02 mPa·s | viscosity (303.15 K, x2 = 0.807): 1.75 ± 0.02 mPa·s | viscosity (303.15 K, x2 = 0.9039): 1.8 ± 0.02 mPa·s | viscosity (313.15 K, x2 = 0.1044): 1.48 ± 0.02 mPa·s | viscosity (313.15 K, x2 = 0.2075): 1.46 ± 0.02 mPa·s | viscosity (313.15 K, x2 = 0.3094): 1.44 ± 0.02 mPa·s | viscosity (313.15 K, x2 = 0.4109): 1.43 ± 0.02 mPa·s | viscosity (313.15 K, x2 = 0.5112): 1.44 ± 0.02 mPa·s | viscosity (313.15 K, x2 = 0.6106): 1.45 ± 0.02 mPa·s | viscosity (313.15 K, x2 = 0.7093): 1.46 ± 0.02 mPa·s | viscosity (313.15 K, x2 = 0.807): 1.48 ± 0.02 mPa·s | viscosity (313.15 K, x2 = 0.9039): 1.51 ± 0.02 mPa·s | viscosity (323.15 K, x2 = 0.1044): 1.27 ± 0.02 mPa·s | viscosity (323.15 K, x2 = 0.2075): 1.25 ± 0.02 mPa·s | viscosity (323.15 K, x2 = 0.3094): 1.24 ± 0.02 mPa·s | viscosity (323.15 K, x2 = 0.4109): 1.23 ± 0.02 mPa·s | viscosity (323.15 K, x2 = 0.5112): 1.24 ± 0.02 mPa·s | viscosity (323.15 K, x2 = 0.6106): 1.25 ± 0.02 mPa·s | viscosity (323.15 K, x2 = 0.7093): 1.26 ± 0.02 mPa·s | viscosity (323.15 K, x2 = 0.807): 1.27 ± 0.02 mPa·s | viscosity (323.15 K, x2 = 0.9039): 1.29 ± 0.02 mPa·s | viscosity (333.15 K, x2 = 0.1044): 1.1 ± 0.02 mPa·s | viscosity (333.15 K, x2 = 0.2075): 1.09 ± 0.02 mPa·s | viscosity (333.15 K, x2 = 0.3094): 1.08 ± 0.02 mPa·s | viscosity (333.15 K, x2 = 0.4109): 1.07 ± 0.02 mPa·s | viscosity (333.15 K, x2 = 0.5112): 1.08 ± 0.02 mPa·s | viscosity (333.15 K, x2 = 0.6106): 1.08 ± 0.02 mPa·s | viscosity (333.15 K, x2 = 0.7093): 1.09 ± 0.02 mPa·s | viscosity (333.15 K, x2 = 0.807): 1.1 ± 0.02 mPa·s | viscosity (333.15 K, x2 = 0.9039): 1.12 ± 0.02 mPa·s | viscosity (343.15 K, x2 = 0.1044): 0.968 ± 0.021 mPa·s | viscosity (343.15 K, x2 = 0.2075): 0.957 ± 0.021 mPa·s | viscosity (343.15 K, x2 = 0.3094): 0.95 ± 0.021 mPa·s | viscosity (343.15 K, x2 = 0.4109): 0.943 ± 0.021 mPa·s | viscosity (343.15 K, x2 = 0.5112): 0.947 ± 0.021 mPa·s | viscosity (343.15 K, x2 = 0.6106): 0.951 ± 0.021 mPa·s | viscosity (343.15 K, x2 = 0.7093): 0.958 ± 0.021 mPa·s | viscosity (343.15 K, x2 = 0.807): 0.968 ± 0.022 mPa·s | viscosity (343.15 K, x2 = 0.9039): 0.982 ± 0.022 mPa·s | viscosity (353.15 K, x2 = 0.1044): 0.856 ± 0.021 mPa·s | viscosity (353.15 K, x2 = 0.2075): 0.847 ± 0.021 mPa·s | viscosity (353.15 K, x2 = 0.3094): 0.842 ± 0.021 mPa·s | viscosity (353.15 K, x2 = 0.4109): 0.836 ± 0.021 mPa·s | viscosity (353.15 K, x2 = 0.5112): 0.84 ± 0.021 mPa·s | viscosity (353.15 K, x2 = 0.6106): 0.843 ± 0.021 mPa·s | viscosity (353.15 K, x2 = 0.7093): 0.849 ± 0.021 mPa·s | viscosity (353.15 K, x2 = 0.807): 0.858 ± 0.021 mPa·s | viscosity (353.15 K, x2 = 0.9039): 0.87 ± 0.021 mPa·s | viscosity (363.15 K, x2 = 0.1044): 0.765 ± 0.021 mPa·s | viscosity (363.15 K, x2 = 0.2075): 0.758 ± 0.021 mPa·s | viscosity (363.15 K, x2 = 0.3094): 0.753 ± 0.021 mPa·s | viscosity (363.15 K, x2 = 0.4109): 0.749 ± 0.021 mPa·s | viscosity (363.15 K, x2 = 0.5112): 0.752 ± 0.021 mPa·s | viscosity (363.15 K, x2 = 0.6106): 0.755 ± 0.021 mPa·s | viscosity (363.15 K, x2 = 0.7093): 0.76 ± 0.021 mPa·s | viscosity (363.15 K, x2 = 0.807): 0.768 ± 0.021 mPa·s | viscosity (363.15 K, x2 = 0.9039): 0.778 ± 0.021 mPa·s | viscosity (373.15 K, x2 = 0.1044): 0.689 ± 0.021 mPa·s | viscosity (373.15 K, x2 = 0.2075): 0.683 ± 0.021 mPa·s | viscosity (373.15 K, x2 = 0.3094): 0.68 ± 0.021 mPa·s | viscosity (373.15 K, x2 = 0.4109): 0.676 ± 0.021 mPa·s | viscosity (373.15 K, x2 = 0.5112): 0.679 ± 0.021 mPa·s | viscosity (373.15 K, x2 = 0.6106): 0.685 ± 0.021 mPa·s | viscosity (373.15 K, x2 = 0.7093): 0.687 ± 0.021 mPa·s | viscosity (373.15 K, x2 = 0.807): 0.694 ± 0.021 mPa·s | viscosity (373.15 K, x2 = 0.9039): 0.703 ± 0.021 mPa·s
